# Results taken from PMC11212260, “Next-generation neuropeptide Y receptor small-molecule agonists inhibit mosquito-biting behavior” (Parasites & Vectors, 2024).
# Several values for one entry are separate records, joined by “and”; a condition that tells them apart may be missing. Identical values can stand only once. Like-named read-outs stand apart in the source and are kept apart here.
# Key:
# [1] = target: Ae. aegypti NPYLR7 (Aedes aegypti, UniProt U5N1H5); test: In vitro calcium (GCaMP6s) FLIPR assay in HEK293T cells transfected with NPYLR7; format: cell-based; settings: for activation at 100 µM: single replicate of the dose-response curve
# Procedure: The in vitro screening assay was adapted from, and carried out at HD Biosciences (HDB, Shanghai) as follows: HEK293T (Thermo Fisher Scientific) cells were grown in Dulbecco’s modified Eagle medium (DMEM) (high glucose, with glutamine), 10% fetal bovine serum, 1% penicillin–streptomycin (Pen/Strep), seeded in a 75 cm^2 flask, and incubated at 37 °C and 5% CO2. Cells were transiently transfected with 1 μg of each plasmid expressing GCaMP6s (Addgene […]) (Chen et al., 2013), mouse Gqα15 (Addgene #40753) (Offermanns and Simon, 1995) and Ae. aegypti NPYLR7 (Addgene #52392) (Duvall et al. 2019) using Lipofectamine 2000 (Invitrogen) in 4 ml of Opti-MEM (Invitrogen). This mixture was added to a plate after 20 min and incubated for 6–8 h. Cells were then trypsinized, resuspended in phenol-free media, and plated in a 384-well plate (Greiner Bio-One) at a density of 20,000 cells per 40 μl, and incubated overnight (37 °C, 5% CO2). Cells were imaged directly in phenol-free media. Plates were loaded into a Molecular Devices fluorescence imaging plate reader (FLIPR) with an excitation wavelength of 470–495 nm and an emitted wavelength of 515–575 nm. Plates were imaged every second for 5 min. After 30 s of baseline fluorescence recording, 10 μl of the test compound in reading buffer [Hank’s Balanced Salt Solution (Gibco) + 20 mM HEPES (Sigma-Aldrich)] was added. Concentrations tested ranged from 0 to 100 μM. Data were collected in raw fluorescence units (RFU).
# Each test plate included replicates of 10 μM FMRFa3 (H‐Ala‐Gly‐Gln‐Gly‐Phe‐Met‐Arg‐Phe‐NH2), an Ae. aegypti neuropeptide agonist of NPYLR7 used to calculate the hundred percent effect (HPE). The zero percent effect (ZPE) control was calculated as a response to buffer alone. The Z′ factor was calculated for each plate by Z^′=1-3σHPE+3σZPE/|μHPE-μZPE| . Plates with Z′ < 0.5 were excluded from analysis. Raw fluorescence units (RFU) were converted to percent effect relative to the average of the ZPE and HPE. Percent effect = (sample luminescence − average ZPE)/(average HPE − average ZPE)×100. […] Each replicate was plotted as percent effect versus log[concentration], and replicates with maximal responses between 20 and 250% were used for EC50 calculations. Relative EC50 was calculated using an [Agonist] versus response–variable slope four-parameter model where Y=Bottom+(X^Hillslope)∗(Top-Bottom)/(X^HillSlope+EC50^HillSlope) . For compounds with multiple replicates, the relative EC50 of each replicate was averaged.
# [2] = tested on: Aedes aegypti (Orlando strain) females; test: Host-seeking screening assay (miniport olfactometer); format: in vivo; settings: fed 1 μM in saline, tested 48 h post-meal; per-compound value of Fig. 3C
# Procedure: (§1) Groups of 60–150 females were placed in bucket cages with a diameter of 21.6 cm and height of 16.5 cm (VWR) and fasted with access to water for 24 h prior to feeding. Meals were delivered to females via Glytube membrane feeders as described previously. Meals consisted of 1.5 ml sheep blood (HemoStat Laboratories), saline (400 mM NaHCO3 + dih2O), or saline and test compound. Lyophilized compounds were stored at room temperature until use. High-concentration stocks (30 mM in 100% dimethyl sulfoxide [DMSO]) (Sigma-Aldrich) were stored at −20 °C and diluted in saline immediately prior to feeding. Once prepared, meals and glycerol heating elements were warmed in a 42 °C water bath for 15 min to provide warmth to attract mosquitos to feed. ATP (1 mM final concentration) and test compounds (1 μM final concentration) were added prior to placing the meal on top of the mesh on the cage containing female mosquitos. Females were allowed 15–20 min to feed to repletion. Abdominal engorgement was scored by eye and confirmed by weighing females to ensure full feeding (Data S1). […] Females were returned to their original cage with a diH2O wick for 48 h prior to behavioral testing. The lethality of each compound was measured by counting the number of dead females in each cage 24 h post-meal.
# Miniport olfactometers were fabricated in-house as described previously. Information regarding design, construction, and use can be found at https://github.com/VosshallLab/Miniport-Construction. Miniport canisters consisted of a 6″ × 3″ × 3″ acrylic tube with a mesh screen to allow for air flow. Groups of 10–20 females were loaded into canisters 24 h post-meal. Females were left in canisters overnight to acclimate with two cotton balls soaked in diH20 to prevent desiccation. Behavior trials began 48 h post-meal. Canisters were randomly assigned to attraction traps 1–4 and given 5 min to acclimate. The stimulus end of the trap was connected to a flowmeter that supplied 5% CO2 at a rate of 30 ml/min. Thirty seconds of CO2 flow was supplied to activate females prior to opening the sliding door. Once opened, the sliding door gave females access to the attraction trap baited with a human-scented nylon stocking previously worn by the same experimenter for 8–10 h to collect body odor and stored in a plastic bag at −20 °C until use. After 5 min, the sliding door was closed and attraction was scored as mosquitoes in the attraction trap/total number of mosquitoes. For each experiment data were normalized to the matched average saline attraction from the same experiment (% attracted/average saline attraction). Any dead mosquitoes were excluded from the analysis. Non-fed females and blood-fed females served as environmental control groups while the saline-fed females served as the vehicle control each day. If non-fed or saline-fed females were less than 50% attracted or if blood-fed females were more than 20% attracted behavioral trials were halted and all data from that experimental day were discarded.
# [3] = tested on: Aedes aegypti (Orlando strain) females; test: Biting assay (mouse-in-cage); format: in vivo; set-up: key to Difference between medians: Actual (vs. saline) / Difference between medians: Hodges-Lehmann (vs. saline): differences in percent biting (blood-fed/total females, %)
# Procedure: as §1, with “ATP (1 mM final concentration) and test compounds (1 μM final concentration) were added prior to placing the meal on top of the mesh on the cage containing female mosquitos.” left out
# This assay was modified from. Females were fed and scored as described above. Forty-eight hours post-meal, females were anesthetized in a 4 °C cold room and aspirated into a petri dish (Thermo Fisher Biosciences) with a randomly assigned color powder (Slice of the Moon; Chameleon Colors) to mark their treatment group. Females were then individually removed from the color powder, placed inside a cage measuring 91 cm × 61 cm × 61 cm (BugDorm), and allowed 2–4 h to recover. Each experiment consisted of a cage with 12–20 females in each treatment group including environmental (non-fed and blood-fed) and vehicle (saline-fed) control groups. The experiment began once an anesthetized mouse was introduced to the center of the cage, and females were allowed 15 min to blood-feed. The mouse was then removed, and the cage was placed at 4 °C to anesthetize females for collection. Females were aspirated into a large glass petri dish (Pyrex) and scored under a dissection microscope (Nikon SMZ1500) for powder color and blood-feeding status. Females were scored as blood-fed if fresh blood was present in the abdomen. Percent biting was calculated as females freshly blood-fed/total females in each respective treatment group.
# [4] = relative EC50, percent effect relative to 10 μM FMRFa3, read-out: EC50
# [5] = EC50 of the individual assay date/plate (assay date), read-out: EC50
# [6] = HEK-293T, single replicate, normalised response
# [7] = sheet Figure 3C, unit inferred, read-out: EC50
# [8] = summary EC50 per compound (mean over assay dates), the unit is taken from the neighbouring EC50 (uM) column, read-out: Reported Metric
# Sequence of Ae. aegypti NPYLR7 (U5N1H5 entry or part of it): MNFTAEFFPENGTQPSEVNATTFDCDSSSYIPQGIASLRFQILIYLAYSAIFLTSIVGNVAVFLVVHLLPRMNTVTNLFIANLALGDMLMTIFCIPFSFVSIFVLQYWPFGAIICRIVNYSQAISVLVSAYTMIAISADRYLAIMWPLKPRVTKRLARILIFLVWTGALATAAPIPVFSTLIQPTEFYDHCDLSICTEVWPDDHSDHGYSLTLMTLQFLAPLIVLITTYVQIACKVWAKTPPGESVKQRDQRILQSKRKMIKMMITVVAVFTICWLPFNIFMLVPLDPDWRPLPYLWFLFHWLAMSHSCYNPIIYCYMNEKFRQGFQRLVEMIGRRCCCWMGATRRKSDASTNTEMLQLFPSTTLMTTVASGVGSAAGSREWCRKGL
Compound,"EC50 [1, 4] [µM]",in vitro potency (in words) ([1]; relative to reference compound TDI-012631),Attraction (relative to saline) [2],Difference between medians: Actual (vs. saline) ([3]; fed 1 μM),Difference between medians: Hodges-Lehmann (vs. saline) ([3]; fed 1 μM),Median (percent freshly blood-fed) ([3]; fed 1 μM),Significantly different (P < 0.05)? vs. saline ([3]; fed 1 μM),"Percentage of females that freshly blood-fed on an anesthetized mouse ([3]; fed 1 μM 48 h prior, 15 min exposure, individual replicates, listed as TDI-04188)",effect on biting / blood-feeding from a live host (in words) ([3]; fed at a dose of 1 μM),"EC50 [1, 5] [µM]","EC50 ([1]; Figure 1E Summary, third list (n = 39), read-out: Reported Metric (Summary list)) [µM]","activation at 0.1372 µM ([1]; HEK-293T, 0.1372 uM, single replicate, normalised response) [%]","activation at 1.2346 µM ([1]; HEK-293T, 1.2346 uM, single replicate, normalised response) [%]","activation at 11.1111 µM [1, 6] [%]","activation at 33.3333 µM ([1]; HEK-293T, 33.3333 uM, single replicate, normalised response) [%]","activation at 100 µM ([1]; HEK-293T, normalised response) [%]","EC50 [1, 7] [µM]","EC50 [1, 8] [µM]","EC50 ([1]; Figure 1E Summary, second list (n = 48), read-out: Reported Metric (Summary list)) [µM]"
CNc1nc(NC(=N)N)nc2cc(OCC3CCOCC3)ccc12 [TDI-014188],0.0602,significantly improved in vitro potency,0.895,-21.9,-21,"50.00, n=11%",Yes,17% and 78% and 72% and 33% and 47% and 67% and 53%,reduced biting behavior,,,,,,,,,,
CNc1nc(NC(=N)N)nc2cc(OCc3ccc(OC)cc3)ccc12 [TDI-014190],0.0181,,0.805,,,,,,,0.0181,0.0181,46.8,77.5,69.9,92.1,91.9,0.0181,0.0181,
Cc1nc(NC(=N)N)nc2cc(OCC3CCCCO3)ccc12 (stereo not shown) [TDI-014192],5.76,,1.035,,,,,,,5.76,,,,55.1,,67.4,5.76,5.76,5.76
